These are literature values, as cited in PMC4806784 (Investigational new drugs, 2015).

For the series the following is noted: 60 mg/m^2 q 3 week, cited from earlier work.
Where [1] appears, read: chemotherapy-naïve elderly patients with advanced non-small cell lung cancer, ref a more recent trial.
Setting [2] is: metastatic breast cancer, second line.

Molecules are shown by their SMILES. Like-named read-outs stand apart in the source and are kept apart here.

For the compound `CC(=O)O[C@@]12CO[C@@H]1C[C@H](O)[C@@]1(C)C(=O)[C@H](O)C3=C(C)[C@@H](OC(=O)[C@H](O)[C@@H](NC(=O)OC(C)(C)C)c4ccccc4)C[C@@](O)([C@@H](OC(=O)c4ccccc4)[C@H]21)C3(C)C` [docetaxel], under setting [1], the “incidence of Grade 3 to 4 neutropenia” value is 89% and the “incidence of febrile neutropenia” value was 15%. Moreover, under setting [2], the “incidence of Grade 3 to 4 neutropenia” value is recorded as 76% and the “incidence of febrile neutropenia” value is 5%.
